# Test results published in PMC4490394 (Scientific Reports, 2015).
# Where a chain is given by its changes, count along the chain named.
# Assays:
# [1] = system: DU-145 prostate cancer cells; experiment: Viability of AR-negative cells (WST-1); format: cell-based, human; details: increasing concentrations, 4 days
# orthotopic VCaP tumors = experiment: Orthotopic VCaP xenograft, tumor growth; format: in vivo, nude mice; details: 50 mg/kg bid oral, 3 weeks, vs control group
# Procedure: One million VCaP cells in 20 μL of RPMI-1640 medium were orthotopically injected into the dorsal prostate lobes of athymic nude male mice (7 weeks old from Harlan Winkelman, France). Tumor growth was followed by measuring serum PSA (ProStatus™ PSA EQM Kits, Wallac, Finland). […] At autopsy, blood samples were collected by heart puncture, clotted overnight at +4 °C, and centrifuged. For serum testosterone determination, 25-μL aliquots were extracted twice with 2 mL of diethyl ether and evaporated under nitrogen to dryness. The residues were reconstituted in PBS and measured using a standard radioimmunoassay as described previously.
# AR(F876L) = target: T1, AR(F876L) (Homo sapiens, UniProt P10275, F877L)
# T1 sequence (P10275 1-920 F877L): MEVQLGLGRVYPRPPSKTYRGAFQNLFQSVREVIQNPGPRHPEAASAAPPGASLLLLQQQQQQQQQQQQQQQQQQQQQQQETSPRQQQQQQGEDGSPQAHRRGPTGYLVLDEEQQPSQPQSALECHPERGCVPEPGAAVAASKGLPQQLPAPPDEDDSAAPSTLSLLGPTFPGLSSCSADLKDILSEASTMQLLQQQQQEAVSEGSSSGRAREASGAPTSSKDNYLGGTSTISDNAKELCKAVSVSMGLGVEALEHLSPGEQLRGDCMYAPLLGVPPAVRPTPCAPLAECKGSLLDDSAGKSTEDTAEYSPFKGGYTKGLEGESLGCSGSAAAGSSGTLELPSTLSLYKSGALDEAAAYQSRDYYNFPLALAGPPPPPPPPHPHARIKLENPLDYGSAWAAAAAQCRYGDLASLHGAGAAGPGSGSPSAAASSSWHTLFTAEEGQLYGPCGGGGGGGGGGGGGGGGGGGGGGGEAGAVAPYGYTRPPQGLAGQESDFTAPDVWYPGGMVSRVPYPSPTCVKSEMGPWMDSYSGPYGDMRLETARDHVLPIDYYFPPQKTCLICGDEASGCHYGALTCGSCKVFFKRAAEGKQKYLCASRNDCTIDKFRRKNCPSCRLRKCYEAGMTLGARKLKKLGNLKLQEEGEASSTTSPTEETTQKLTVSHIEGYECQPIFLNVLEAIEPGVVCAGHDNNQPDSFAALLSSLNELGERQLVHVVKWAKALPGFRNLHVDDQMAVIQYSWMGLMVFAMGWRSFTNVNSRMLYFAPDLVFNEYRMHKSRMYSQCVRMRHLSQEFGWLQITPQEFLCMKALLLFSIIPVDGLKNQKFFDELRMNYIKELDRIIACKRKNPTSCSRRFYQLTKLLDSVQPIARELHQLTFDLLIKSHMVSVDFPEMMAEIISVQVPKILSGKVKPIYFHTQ
# Procedure: (§1) For one well in a 96-well plate, 190 ng of reporter construct DNA and 10 ng of receptor construct DNA were diluted in Opti-MEM® (Gibco). […] Luciferase activity was measured as described above.
# AR(W741L) = target: T2, AR(W741L) (Homo sapiens, UniProt P10275, W742L)
# T2 sequence (P10275 1-920 W742L): T1 sequence (P10275 1-920 F877L) with W742L, L877F
# Procedure: as §1
# [2] = system: AR nuclear translocation in HS-HEK293 cells
# Procedure: AR overexpressing HS-HEK293 cells immunolabeled with an AR-antibody were imaged either with a high-content screening (HCS) reader (Cellomics ArrayScan HCS VTI reader, Thermo) or with a confocal microscope (LSM780, Zeiss). HS-HEK293 cells in steroid-free assay medium were plated on poly-D-lysine coated microplates (BD) (HCS reader) or on coverslips (confocal imaging). After a 48-hour incubation, the cells were treated with 0.3 (HCS reader) or 1 μM (confocal imaging) of test compounds together with 0.3 nM testosterone for 5 hours. […] Cells were washed, DNA was labeled with DAPI (Sigma, 1 μg//mL), and images were analyzed with a NucTrans. V3 assay algorithm (Thermo). […] Coverslips were mounted with Vectashield containing DAPI (Vector Laboratories).
# testosterone = details: ODM-201-treated patients ref 28; cited from earlier work
smiles,measurement,setting,value
CC(O)c1cc(C(=O)N[C@@H](C)Cn2ccc(-c3ccc(C#N)c(Cl)c3)n2)[nH]n1 (stereo partly drawn) [ODM-201],effect on viability of DU-145 cells,[1],no effect
same,orthotopic VCaP tumor growth,orthotopic VCaP tumors,inhibited tumor growth significantly
same,functional activity (agonist/antagonist) on AR(F876L),AR(F876L),full antagonists
same,functional activity (agonist/antagonist) on AR(W741L),AR(W741L),full antagonists
same,effect on testosterone-induced nuclear translocation of AR,[2],inhibit
same,serum testosterone levels in treated patients,testosterone,maintained at castrate levels
